This is an account of results in patent US10155754B2, “Substituted 2-imino-1,3-thiazolidin-4-ones as N-arachidonoylethanolamine cellular uptake inhibitors” (UNIVERSITAT BERN, priority 2014, dated 2018).

In the first test the test system is AEA cellular uptake (U937 cells). The experiment in a line: [3H]-AEA cellular uptake inhibition in U937 cells. The test is classed as cell-based. The settings on record: Homo sapiens, U-937, U937 cells, final 100 nM AEA with 0.5 nM [3H]-AEA, 15 min at 37° C.; read-out: AEA uptake IC50. The method, then: [^3H]-AEA Cellular Uptake
Screening for AEA cellular uptake inhibition was performed in a semi-automated procedure: Pipetting and washing steps were performed by a Biomek3000 laboratory workstation. First, required amounts of U937 cells were centrifuged at 100×g for 5 min and resuspended in RPMI (37° C.) to a final concentration of 2×10^6 cells/mL. Then, 250 μL of cell suspension (0.5×10^6 cells per sample) were transferred into AquaSil™ silanized glass vials (Chromacol 1.1-MTV) in 96-well format. After addition of 5 μL vehicle (DMSO) or compounds the cells were incubated at 37° C. for 15 min. As positive controls OMDM-2 and UCM707 were used at 10 μM in each run. The ETI-T compounds were measured at up to 7 concentrations in triplicates from 100 pM-100 μM. After pre-incubation, a mixture of 0.5 nM [ethanolamine-1-^3H]-AEA, (60 Ci/mmol) and 99.5 nM of cold AEA (final 100 nM) was added and samples were incubated at 37° C. for another 15 min. The reaction was stopped by rapid filtration over UniFilter-96 GF/C filters (PerkinElmer) pre-soaked with PBS 0.25% BSA. Cells were washed three times with 100 μL ice-cold PBS buffer containing 1% fatty acid free BSA. After drying, 45 μL MicroScint 20 scintillation cocktail (PerkinElmer, Waltham, Mass., US) was added to the wells and the plate was sealed. Radioactivity was measured by liquid scintillation counting on a PerkinElmer Wallac Trilux MicroBeta 1450 during 2 min. Non-specific binding of [^3H]AEA (100 nM) to the glass vials was never higher than 10%. IC50 values were calculated by GraphPad® by non-linear regression using the built-in log(inhibitor) vs. response-variable slope (four parameters) function.
On to `CCCCN1C(=O)/C(=C/c2ccc3[nH]cnc3c2)S/C1=N\c1ccccc1` [04_N_G, (2Z,5Z)-5-((1H-benzo[d]imidazol-5-yl)methylene)-3-butyl-2-(phenylimino)thiazolidin-4-one], for which the IC50 turned out to be 0.557 µM.
Same read-out and setting: to `CCCCN1C(=O)/C(=C/c2ccc(CO)cc2)S/C1=N\Cc1ccccc1` [22_C_G, (2Z,5Z)-5-(4-(hydroxymethyl)benzylidene)-2-(benzylimino)-3-butylthiazolidin-4-one] belongs 1.28 µM; to `O=C1/C(=C/c2ccc(CO)cc2)S/C(=N\c2ccccc2)N1c1ccccc1` [compound 22, (2Z,5Z)-5-(4-(hydroxymethyl)benzylidene)-3-phenyl-2-(phenylimino)thiazolidin-4-one], 0.729 µM; to `Cc1ccc(/N=C2\S/C(=C\c3ccc4c(c3)OCCO4)C(=O)N2c2ccc(F)cc2)cc1` [24_A_B, (2Z,5Z)-5-(2,3-dihydro-1,4-benzodioxin-6-ylmethylene)-3-(4-fluorophenyl)-2-(p-tolylimino)thiazolidin-4-one], 0.138 µM.
Same read-out and setting: for `O=C1/C(=C/c2ccc(CO)cc2)S/C(=N\Cc2ccccc2)N1c1ccccc1` [22_C_N, (2Z,5Z)-5-(4-(hydroxymethyl)benzylidene)-2-(benzylimino)-3-phenylthiazolidin-4-one] the value was 1.66 µM; for `Cc1ccc(N2C(=O)/C(=C/c3ccc4c(c3)OCCO4)S/C2=N\c2ccc(F)cc2)cc1` [24_B_A, (2Z,5Z)-2-(4-fluorophenylimino)-5-((2,3-dihydrobenzo[b][1,4]dioxin-6-yl)methylene)-3-p-tolylthiazolidin-4-one], 0.176 µM; for `O=C1/C(=C/c2ccc(CO)cc2)S/C(=N\Cc2ccccc2)N1c1ccc(F)cc1` [22_C_B, (2Z,5Z)-5-(4-(hydroxymethyl)benzylidene)-2-(benzylimino)-3-(4-fluorophenyl)thiazolidin-4-one], 2.17 µM.
Turning to `O=C1/C(=C/c2ccc3[nH]cnc3c2)S/C(=N\Cc2cccnc2)N1c1ccccc1` [04_S_N, (2Z,5Z)-2-((pyridin-3-yl)methylimino)-5-((1H-benzo[d]imidazol-5-yl)methylene)-3-phenylthiazolidin-4-one], the 50% inhibitory concentration (IC50) was found to be 0.878 µM.
Regarding `CCCCCCCCCCCCN1C(=O)/C(=C/c2ccc(CO)cc2)S/C1=N\c1ccc(F)cc1` [22_B_V, (2Z,5Z)-5-(4-(hydroxymethyl)benzylidene)-2-(4-fluorophenylimino)-3-dodecylthiazolidin-4-one], the IC50 was determined as 12.5 µM.

The test is the same for the next values; noted with them: Homo sapiens, U-937, U937 cells, final 100 nM AEA with 0.5 nM [3H]-AEA, 15 min at 37° C.; read-out: AEA uptake inhibition IC50.
Take `Cc1ccc(/N=C2\S/C(=C\c3ccc(CO)cc3)C(=O)N2c2ccccc2)nc1` [drawing 143]: the IC50 came to 1.45 µM.
Regarding `COc1ccc(/C=C2\S/C(=N\c3ccccc3)N(c3ccccc3)C2=O)nc1`, the IC50 stood at 6.6 µM.
On the same count and under the same terms, for `Cc1ccc(/N=C2\S/C(=C\c3ccc4[nH]cnc4c3)C(=O)N2c2ccccc2)cc1` [drawing 144] the value was 0.107 µM; for `COc1ccc(/C=C2\S/C(=N\c3ccc(OC)cc3)N(c3ccccc3)C2=O)cc1`, 1.74 µM.
Same read-out and setting: for `CCCCN1C(=O)/C(=C/c2ccccc2)S/C1=N\c1ccccc1` the value was 4.15 µM; for `O=C1/C(=C/c2ccc(CO)cc2)S/C(=N\c2ccccc2)N1Cc1ccccc1` [drawing 156], 0.657 µM.
Turning to `Cc1ccc(/N=C2\S/C(=C\c3ccc4[nH]ccc4c3)C(=O)N2c2ccccc2)nc1`, the concentration for half-maximal inhibition (IC50) stood at 2.73 µM.
`COc1ccc(/C=C2\S/C(=N\c3ccccc3)N(Cc3ccccc3)C2=O)cc1`: the concentration for half-maximal inhibition (IC50) came to 2.29 µM.

Still in this test, the particulars now being: U937 cells, final 100 nM AEA with 0.5 nM [3H]-AEA, 15 min at 37° C.; read-out: AEA uptake IC50.
Regarding `O=C1/C(=C/c2ccc(CO)cc2)S/C(=N\Cc2ccccc2)N1CCc1ccccc1` [22_C_O, (2Z,5Z)-5-(4-(hydroxymethyl)benzylidene)-2-(benzylimino)-3-phenethylthiazolidin-4-], the IC50 worked out at 1.2 µM.
Same read-out and setting: to `COCc1cccc(/C=C2\S/C(=N\Cc3ccccc3)N(c3ccccc3)C2=O)c1` [15_C_N, (2Z,5Z)-5-(3-(methoxymethyl)benzylidene)-2-(benzylimino)-3-phenylthiazolidin-4-] belongs 1.69 µM.

The term IC50 denotes the concentration needed to halve the response being measured.
